Source: PubChem BioAssay (NCI)
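Where inhibition never reached the appropriate level, the endpoint shown equals the highest concentration tested. Otherwise, values were interpolated linearly from a five-concentration, 48-hour dose response in 96-well plates. Definition used: TGI = concentration required for complete inhibition of growth.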

Tests used:
Assay in all cases: NCI anticancer screen, dose series, 48 h
KM12 colon = test system: KM12 colon
HCT-116 colon = test system: HCT-116 colon
U251 CNS = test system: U251 CNS
LOX IMVI melanoma = test system: LOX IMVI melanoma
HL-60(TB) leukemia = test system: HL-60(TB) leukemia
SK-OV-3 ovarian = test system: SK-OV-3 ovarian
OVCAR-4 ovarian = test system: OVCAR-4 ovarian
ACHN renal = test system: ACHN renal
TK-10 renal = test system: TK-10 renal
UACC-62 melanoma = test system: UACC-62 melanoma
OVCAR-3 ovarian = test system: OVCAR-3 ovarian
SN12C renal = test system: SN12C renal
XF 498 CNS = test system: XF 498 CNS
NCI-H23 lung = test system: NCI-H23 lung
DMS 114 small cell lung = test system: DMS 114 small cell lung
CAKI-1 renal = test system: CAKI-1 renal
UO-31 renal = test system: UO-31 renal
786-0 renal = test system: 786-0 renal
CCRF-CEM leukemia = test system: CCRF-CEM leukemia
SK-MEL-5 melanoma = test system: SK-MEL-5 melanoma
DLD-1 colon = test system: DLD-1 colon
MALME-3M melanoma = test system: MALME-3M melanoma
M14 melanoma = test system: M14 melanoma
A498 renal = test system: A498 renal
SW-620 colon = test system: SW-620 colon
MOLT-4 leukemia = test system: MOLT-4 leukemia
M19-MEL melanoma = test system: M19-MEL melanoma
A549 NSCLC = test system: A549 NSCLC
UACC-257 melanoma = test system: UACC-257 melanoma
SF-539 CNS = test system: SF-539 CNS
KM20L2 colon = test system: KM20L2 colon
SK-MEL-28 melanoma = test system: SK-MEL-28 melanoma
RXF-631 renal = test system: RXF-631 renal
OVCAR-8 ovarian = test system: OVCAR-8 ovarian
COLO 205 colon = test system: COLO 205 colon
SK-MEL-2 melanoma = test system: SK-MEL-2 melanoma
HOP-18 NSCLC = test system: HOP-18 NSCLC
SNB-75 CNS = test system: SNB-75 CNS
OVCAR-5 ovarian = test system: OVCAR-5 ovarian
HOP-92 NSCLC = test system: HOP-92 NSCLC
SF-295 CNS = test system: SF-295 CNS
NCI-H522 lung = test system: NCI-H522 lung
EKVX NSCLC = test system: EKVX NSCLC
LXFL 529 NSCLC = test system: LXFL 529 NSCLC
K-562 leukemia = test system: K-562 leukemia
NCI-H460 lung = test system: NCI-H460 lung
HOP-62 NSCLC = test system: HOP-62 NSCLC
HCC-2998 colon = test system: HCC-2998 colon
HCT-15 colon = test system: HCT-15 colon
DMS 273 small cell lung = test system: DMS 273 small cell lung
SF-268 CNS = test system: SF-268 CNS
NCI-H226 lung = test system: NCI-H226 lung
HT29 colon = test system: HT29 colon
IGROV1 ovarian = test system: IGROV1 ovarian
RXF 393 renal = test system: RXF 393 renal
SR leukemia = test system: SR leukemia
SNB-19 CNS = test system: SNB-19 CNS
SNB-78 CNS = test system: SNB-78 CNS
RPMI-8226 leukemia = test system: RPMI-8226 leukemia

Measured: TGI

Cc1cc(=O)[nH]c(CNC(=O)c2ccc3ccccc3c2)n1
> 100 µM: KM12 colon | HCT-116 colon | U251 CNS | LOX IMVI melanoma | HL-60(TB) leukemia | SK-OV-3 ovarian | OVCAR-4 ovarian | ACHN renal | TK-10 renal | UACC-62 melanoma | OVCAR-3 ovarian | SN12C renal | XF 498 CNS | NCI-H23 lung | DMS 114 small cell lung | CAKI-1 renal | UO-31 renal | 786-0 renal | CCRF-CEM leukemia | SK-MEL-5 melanoma | DLD-1 colon | MALME-3M melanoma | M14 melanoma | A498 renal | SW-620 colon | MOLT-4 leukemia | M19-MEL melanoma | A549 NSCLC | UACC-257 melanoma | SF-539 CNS | KM20L2 colon | SK-MEL-28 melanoma | RXF-631 renal | OVCAR-8 ovarian | COLO 205 colon | SK-MEL-2 melanoma | HOP-18 NSCLC | SNB-75 CNS | OVCAR-5 ovarian | HOP-92 NSCLC | SF-295 CNS | NCI-H522 lung | EKVX NSCLC | LXFL 529 NSCLC | K-562 leukemia | NCI-H460 lung | HOP-62 NSCLC | HCC-2998 colon | HCT-15 colon | DMS 273 small cell lung | SF-268 CNS | NCI-H226 lung | HT29 colon | IGROV1 ovarian | RXF 393 renal | SR leukemia | SNB-19 CNS

COC(=O)[C@H]1COC(=S)N1C(=O)[C@@H](C)[C@H](O)C(C)C
> 100 µM: KM12 colon | HCT-116 colon | U251 CNS | LOX IMVI melanoma | HL-60(TB) leukemia | SK-OV-3 ovarian | SNB-78 CNS | OVCAR-4 ovarian | ACHN renal | TK-10 renal | UACC-62 melanoma | OVCAR-3 ovarian | SN12C renal | XF 498 CNS | NCI-H23 lung | DMS 114 small cell lung | CAKI-1 renal | UO-31 renal | 786-0 renal | CCRF-CEM leukemia | SK-MEL-5 melanoma | DLD-1 colon | MALME-3M melanoma | M14 melanoma | A498 renal | SW-620 colon | MOLT-4 leukemia | M19-MEL melanoma | A549 NSCLC | UACC-257 melanoma | SF-539 CNS | KM20L2 colon | SK-MEL-28 melanoma | RXF-631 renal | OVCAR-8 ovarian | COLO 205 colon | SK-MEL-2 melanoma | HOP-18 NSCLC | SNB-75 CNS | OVCAR-5 ovarian | HOP-92 NSCLC | RPMI-8226 leukemia | SF-295 CNS | EKVX NSCLC | LXFL 529 NSCLC | K-562 leukemia | NCI-H460 lung | HOP-62 NSCLC | HCC-2998 colon | HCT-15 colon | DMS 273 small cell lung | SF-268 CNS | NCI-H226 lung | HT29 colon | IGROV1 ovarian | RXF 393 renal | SR leukemia | SNB-19 CNS
